In the supplement of paper PMC8612539:
Converted amounts (≈) assume the structure as drawn.

Tests used:
Pasteurella multocida = assay: minimum inhibitory concentration (MIC)
Experimental: (§1)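 Broth microdilution MIC (Sensititre BOPO7F bovine plate, CLSI methods) of 19 antimicrobials against field isolates of P. multocida, M. haemolytica, H. somni (deep nasopharyngeal swabs) and E. coli, Enterococcus spp. (rectal swabs) from weaned dairy heifers. Incubation 16-24 h at 35 C. MIC is the lowest concentration preventing visible growth. Values with <= or > lie at the tested range limits. Trimethoprim-sulfamethoxazole is given as the trimethoprim component of a 1:19 mixture.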

Enterococcus spp. = assay: minimum inhibitory concentration (MIC)
Experimental: as §1

CCC[C@@H]1C[C@@H](C(=O)N[C@@H]([C@H]2O[C@H](SC)[C@H](O)[C@@H](O)[C@H]2O)[C@H](C)Cl)N(C)C1 [Clindamycin]
minimum inhibitory concentration [µg/mL]
Settings | Enterococcus spp. | Pasteurella multocida
isolate (source animal id): 2 | ≤ 0.25 | –
isolate (source animal id): 10 | – | > 16
isolate (source animal id): 11 | – | > 16
isolate (source animal id): 12 | – | > 16
isolate (source animal id): 19 | – | > 16
isolate (source animal id): 23 | – | > 16
isolate (source animal id): 26 | – | > 16
isolate (source animal id): 35 | > 16 | –
isolate (source animal id): 42 | 16 (≈ 37.6 µM) | –
isolate (source animal id): 44 | 16 (≈ 37.6 µM) | –
isolate (source animal id): 79 | 16 (≈ 37.6 µM) | –
isolate (source animal id): 88 | ≤ 0.25 | –
isolate (source animal id): 91 | ≤ 0.25 | –
isolate (source animal id): 92 | 2 (≈ 4.71 µM) | –
isolate (source animal id): 98 | – | > 16
isolate (source animal id): 104 | – | > 16
isolate (source animal id): 111 | ≤ 0.25 | –
isolate (source animal id): 115 | – | > 16
isolate (source animal id): 117 | – | > 16
isolate (source animal id): 118 | – | > 16
isolate (source animal id): 121 | – | > 16
isolate (source animal id): 122 | > 16 | –
isolate (source animal id): 123 | 8 (≈ 18.8 µM) | –
isolate (source animal id): 124 | – | > 16
isolate (source animal id): 125 | – | > 16
isolate (source animal id): 128 | – | > 16
isolate (source animal id): 131 | – | > 16
isolate (source animal id): 133 | ≤ 0.25 | –
isolate (source animal id): 135 | – | > 16
isolate (source animal id): 136 | – | > 16
isolate (source animal id): 140 | – | > 16
isolate (source animal id): 144 | – | > 16
isolate (source animal id): 146 | – | > 16
isolate (source animal id): 150 | – | > 16
isolate (source animal id): 151 | – | > 16
isolate (source animal id): 153 | – | > 16
isolate (source animal id): 155 | – | > 16
isolate (source animal id): 157 | – | > 16
isolate (source animal id): 158 | > 16 | –
isolate (source animal id): 160 | – | > 16
isolate (source animal id): 164 | – | > 16
isolate (source animal id): 165 | – | > 16
isolate (source animal id): 167 | – | > 16
isolate (source animal id): 168 | ≤ 0.25 | > 16
isolate (source animal id): 169 | ≤ 0.25 | > 16
isolate (source animal id): 170 | – | > 16
isolate (source animal id): 171 | 16 (≈ 37.6 µM) | > 16
isolate (source animal id): 172 | – | > 16
isolate (source animal id): 173 | – | > 16
isolate (source animal id): 174 | – | > 16
isolate (source animal id): 175 | > 16 | > 16
isolate (source animal id): 176 | – | > 16
isolate (source animal id): 177 | 16 (≈ 37.6 µM) | > 16
isolate (source animal id): 178 | – | > 16
isolate (source animal id): 179 | – | > 16
isolate (source animal id): 181 | ≤ 0.25 | –
isolate (source animal id): 182 | ≤ 0.25 | > 16
isolate (source animal id): 183 | 16 (≈ 37.6 µM) | –
isolate (source animal id): 187 | ≤ 0.25 | –
isolate (source animal id): 190 | ≤ 0.25 | –
isolate (source animal id): 192 | – | > 16
isolate (source animal id): 193 | – | > 16
isolate (source animal id): 194 | 16 (≈ 37.6 µM) | –
isolate (source animal id): 195 | ≤ 0.25 | 8 (≈ 18.8 µM)
isolate (source animal id): 196 | – | > 16
isolate (source animal id): 197 | 0.5 (≈ 1.18 µM) | > 16
isolate (source animal id): 198 | – | > 16
isolate (source animal id): 199 | – | > 16
isolate (source animal id): 200 | – | > 16
isolate (source animal id): 201 | – | > 16
isolate (source animal id): 203 | – | > 16
isolate (source animal id): 204 | – | > 16
isolate (source animal id): 205 | – | > 16
isolate (source animal id): 206 | – | > 16
isolate (source animal id): 207 | – | > 16
isolate (source animal id): 208 | – | > 16
isolate (source animal id): 209 | – | > 16
isolate (source animal id): 210 | – | > 16
isolate (source animal id): 211 | ≤ 0.25 | –
isolate (source animal id): 213 | – | > 16
isolate (source animal id): 214 | 2 (≈ 4.71 µM) | –
isolate (source animal id): 216 | – | > 16
isolate (source animal id): 222 | 16 (≈ 37.6 µM) | –
isolate (source animal id): 223 | 8 (≈ 18.8 µM) | > 16
isolate (source animal id): 227 | – | > 16
isolate (source animal id): 228 | 2 (≈ 4.71 µM) | –
isolate (source animal id): 229 | – | > 16
isolate (source animal id): 230 | 2 (≈ 4.71 µM) | –
isolate (source animal id): 233 | – | > 16
isolate (source animal id): 234 | – | > 16
isolate (source animal id): 235 | > 16 | –
isolate (source animal id): 236 | 8 (≈ 18.8 µM) | –
isolate (source animal id): 237 | – | > 16
isolate (source animal id): 239 | ≤ 0.25 | –
isolate (source animal id): 241 | > 16 | > 16
isolate (source animal id): 244 | 16 (≈ 37.6 µM) | –
isolate (source animal id): 245 | – | > 16
isolate (source animal id): 246 | 16 (≈ 37.6 µM) | –
isolate (source animal id): 247 | > 16 | > 16
isolate (source animal id): 250 | 16 (≈ 37.6 µM) | > 16
isolate (source animal id): 252 | > 16 | –
isolate (source animal id): 254 | – | > 16
isolate (source animal id): 255 | – | > 16
isolate (source animal id): 258 | – | > 16
isolate (source animal id): 261 | – | > 16
isolate (source animal id): 262 | – | > 16
isolate (source animal id): 268 | > 16 | –
isolate (source animal id): 269 | – | > 16
isolate (source animal id): 270 | – | > 16
isolate (source animal id): 274 | – | > 16
isolate (source animal id): 275 | – | > 16
isolate (source animal id): 276 | – | > 16
isolate (source animal id): 277 | – | > 16
isolate (source animal id): 278 | – | > 16
isolate (source animal id): 279 | – | > 16
isolate (source animal id): 280 | – | > 16
isolate (source animal id): 282 | 4 (≈ 9.41 µM) | –
isolate (source animal id): 284 | – | > 16
isolate (source animal id): 285 | > 16 | > 16
isolate (source animal id): 287 | – | > 16
isolate (source animal id): 289 | 8 (≈ 18.8 µM) | –
isolate (source animal id): 290 | 16 (≈ 37.6 µM) | > 16
isolate (source animal id): 294 | – | > 16
isolate (source animal id): 295 | – | > 16
isolate (source animal id): 296 | 16 (≈ 37.6 µM) | > 16
isolate (source animal id): 298 | ≤ 0.25 | –
isolate (source animal id): 301 | 0.5 (≈ 1.18 µM) | –
isolate (source animal id): 307 | – | > 16
isolate (source animal id): 310 | > 16 | > 16
isolate (source animal id): 311 | – | > 16
isolate (source animal id): 312 | – | > 16
isolate (source animal id): 313 | – | > 16
isolate (source animal id): 315 | – | > 16
isolate (source animal id): 316 | – | > 16
isolate (source animal id): 320 | 4 (≈ 9.41 µM) | –
isolate (source animal id): 331 | 8 (≈ 18.8 µM) | –
isolate (source animal id): 333 | 16 (≈ 37.6 µM) | –
isolate (source animal id): 341 | > 16 | –
